Reference: patent publication US20160375006A1, “USES OF PARALOG-SELECTIVE INHIBITORS OF GSK3 KINASES” (priority 2012, published 2016)
Like-named read-outs stand apart in the source and are kept apart here.

Assays:
GSK3α [1] = molecular target: T1, GSK3α (Homo sapiens, UniProt P49840); experiment: biochemical
Experimental: (§1) Reactions were terminated by the addition of 10 mM EDTA. Substrate and product were separated electrophoretically and fluorescence intensity of the substrate and product was determined by Labchip EZ Reader II (Caliper Life Sciences, MA). The kinase activity was measured as percent conversion. The reactions were performed in duplicate for each sample. […] The results were analyzed by Genedata Assay Analyzer. The percent inhibition was plotted against the compound concentration and the IC50 value was determined from the logistic dose-response curve fitting.

GSK3α [2] = molecular target: T1, GSK3α; conditions: for IC50: read-out: Caliper Assay, GSK3α IC50
Experimental: as §1

GSK3β [3] = molecular target: T2, GSK3β (Homo sapiens, UniProt P49841); experiment: biochemical
GSK3β [4] = molecular target: T2, GSK3β
[5] = Caliper assay, GSK3α over GSK3β
[6] = Caliper assay, GSK3β over GSK3α

T1 sequence (P49840 whole entry): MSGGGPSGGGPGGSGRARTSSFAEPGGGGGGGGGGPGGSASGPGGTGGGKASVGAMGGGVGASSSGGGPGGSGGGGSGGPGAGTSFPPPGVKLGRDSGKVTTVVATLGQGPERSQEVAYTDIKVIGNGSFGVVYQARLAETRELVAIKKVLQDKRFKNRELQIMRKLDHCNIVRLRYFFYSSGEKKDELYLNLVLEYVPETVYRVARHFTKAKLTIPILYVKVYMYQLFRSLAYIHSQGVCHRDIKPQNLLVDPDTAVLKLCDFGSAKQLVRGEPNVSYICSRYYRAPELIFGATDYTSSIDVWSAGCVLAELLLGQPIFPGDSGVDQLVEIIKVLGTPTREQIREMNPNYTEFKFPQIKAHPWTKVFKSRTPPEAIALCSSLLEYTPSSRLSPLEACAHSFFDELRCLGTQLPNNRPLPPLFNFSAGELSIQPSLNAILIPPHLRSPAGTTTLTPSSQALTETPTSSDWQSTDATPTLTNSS
T2 sequence (P49841 whole entry): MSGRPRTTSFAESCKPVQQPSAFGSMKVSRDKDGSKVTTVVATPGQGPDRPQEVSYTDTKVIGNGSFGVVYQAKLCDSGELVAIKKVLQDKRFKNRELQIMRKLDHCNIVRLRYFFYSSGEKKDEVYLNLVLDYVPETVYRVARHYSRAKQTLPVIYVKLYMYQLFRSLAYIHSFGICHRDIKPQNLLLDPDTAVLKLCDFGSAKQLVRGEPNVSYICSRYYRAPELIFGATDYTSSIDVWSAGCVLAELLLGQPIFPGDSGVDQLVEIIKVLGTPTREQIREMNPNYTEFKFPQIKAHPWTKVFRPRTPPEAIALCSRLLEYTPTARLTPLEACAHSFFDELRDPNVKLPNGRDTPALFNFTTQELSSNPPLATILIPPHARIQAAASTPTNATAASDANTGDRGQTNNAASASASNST

| Compound | IC50 (GSK3α [1]) [nM] | GSK3α fold selectivity (GSK3α [2]; [5]) [fold] | IC50 (GSK3β [3]) [nM] | further results |
| --- | --- | --- | --- | --- |
| CCC1(c2ccccc2)C2=C(CC3(COC3)CC2=O)Nc2n[nH]cc21 (racemic) [Compound 236] | 1230 | 6.4 | 7860 |  |
| CCC1(c2ccccc2)C2=C(CC(C)(C)CC2=O)Nc2n[nH]c(C3CC3)c21 (racemic) [Compound 244] | 23 | 1.9 | 43 |  |
| CC(C)c1[nH]nc2c1[C@](C)(c1ccccc1Cl)C1=C(CC(C)(C)CC1=O)N2 (stereo in doubt) [Compound 316] | 6280 |  | 703 | GSK3β fold selectivity (GSK3β [4]; [6]): 8.9 fold |
| CC(C)c1[nH]nc2c1[C@@](C)(c1ccccc1Cl)C1=C(CC(C)(C)CC1=O)N2 (stereo in doubt) [Compound 317] | 12900 |  | 3430 | GSK3β fold selectivity (GSK3β [4]; [6]): 3.8 fold |
| CC1(C)CC(=O)C2=C(C1)Nc1n[nH]c(Cc3ccccc3)c1[C@]2(C)c1ccccc1 (stereo in doubt) [Compound 327] | 607 |  | 185 | GSK3β fold selectivity (GSK3β [4]; [6]): 3.3 fold |
| CC1(C)CC(=O)C2=C(C1)Nc1n[nH]c(C(F)(F)F)c1C2c1cccc(OC(F)(F)F)c1 (stereo not drawn) [Compound 57] |  |  | < 100 | IC50 (GSK3α [2]): < 100 nM |
| Cc1[nH]nc2c1[C@@](c1ccccc1)(C(F)(F)F)C1=C(CC(C)(C)CC1=O)N2 [Compound 93, 1,6,6-trimethyl-9-phenyl-9-(trifluoromethyl)-5,6,7,9-tetrahydro-2H-pyrazolo[3,4-b]quinolin-8(4H)-one] |  |  |  | IC50 (GSK3α [2]): < 100 nM |
| Cc1[nH]nc2c1[C@@](C)(c1cccc(C#N)c1)C1=C(CC(C)(C)CC1=O)N2 [Compound 97, 3-(1,6,6,9-tetramethyl-8-oxo-4,5,6,7,8,9-hexahydro-2H-pyrazolo[3,4-b]quinolin-9-yl)benzonitrile] |  |  |  | GSK3α fold selectivity (GSK3α [2]; GSK3α over GSK3β): 5.9 fold |
| Cc1[nH]nc2c1C1(CCCC1)C1=C(CC(C)(C)CC1=O)N2 [Compound 102] |  |  |  | GSK3α fold selectivity (GSK3α [2]; GSK3α over GSK3β): 1.9 fold |
| COC(=O)c1[nH]nc2c1C(C)(c1ccccc1)C1=C(CC(C)(C)CC1=O)N2 (stereo not drawn) [Compound 104] |  |  |  | GSK3α fold selectivity (GSK3α [2]; GSK3α over GSK3β): 1.5 fold |
| CC1(C)CC(=O)C2=C(C1)Nc1n[nH]c(Cl)c1C2(C)c1ccccc1 (stereo not drawn) [Compound 110] |  |  |  | GSK3α fold selectivity (GSK3α [2]; GSK3α over GSK3β): 1.8 fold |
| CC1(C)CC(=O)C2=C(C1)Nc1n[nH]c(Br)c1C2(C)c1ccccc1 (stereo not drawn) [Compound 111] |  |  |  | GSK3α fold selectivity (GSK3α [2]; GSK3α over GSK3β): 3.1 fold |
| CC1(C)CC(=O)C2=C(C1)Nc1n[nH]c(C3CC3)c1C2(C)c1ccccc1F (stereo not drawn) [Compound 116] |  |  |  | GSK3α fold selectivity (GSK3α [2]; GSK3α over GSK3β): 1.1 fold |
| CC1(C)CC(=O)C2=C(C1)Nc1n[nH]c(C3CC3)c1C2(C)c1cccc(C(F)(F)F)c1 (stereo not drawn) [Compound 118] |  |  |  | GSK3α fold selectivity (GSK3α [2]): 1.1 fold |
| CC1(C)CC(=O)C2=C(C1)Nc1n[nH]c(C3CC(F)(F)C3)c1[C@@]21COc2ccccc21 [Compound 256] | 13 |  | 2 | GSK3β fold selectivity (GSK3β [4]): 6.5 fold |
| CC1(C)CC(=O)C2=C(C1)Nc1n[nH]c(C3CC(F)(F)C3)c1[C@]21COc2ccccc21 [Compound 257] | 339 |  | 21 | GSK3β fold selectivity (GSK3β [4]): 16.1 fold |
| CC1(C)CC(=O)C2=C(C1)Nc1n[nH]c(C3CC(F)(F)C3)c1[C@@]21CCc2ccccc21 [Compound 259] | 87 |  | 20 | GSK3β fold selectivity (GSK3β [4]): 4.4 fold |
| CC1(C)CC(=O)C2=C(C1)Nc1n[nH]c(C3CC(F)(F)C3)c1[C@]21CCc2ccccc21 [Compound 260] | 444 |  | 53 | GSK3β fold selectivity (GSK3β [4]): 8.4 fold |
| CC1(C)CC(=O)C2=C(C1)Nc1n[nH]c(C3CC(F)(F)C3)c1[C@@]21CCc2c(F)cccc21 [Compound 262] | 542 |  | 124 | GSK3β fold selectivity (GSK3β [4]): 4.4 fold |
| CC1(C)CC(=O)C2=C(C1)Nc1n[nH]c(C3CC(F)(F)C3)c1[C@@]21CCc2cc(F)ccc21 [Compound 265] | 710 |  | 81 | GSK3β fold selectivity (GSK3β [4]): 8.8 fold |
| CC1(C)CC(=O)C2=C(C1)Nc1n[nH]c(C3CC(F)(F)C3)c1[C@]21CCc2cc(F)ccc21 [Compound 266] | 342 |  | 38 | GSK3β fold selectivity (GSK3β [4]): 9.0 fold |
| CC1(C)CC(=O)C2=C(C1)Nc1n[nH]c(C3CC(F)(F)C3)c1C21CCCc2ccccc21 (stereo not drawn) [Compound 267] | 342 |  | 38 | GSK3β fold selectivity (GSK3β [4]): 9.0 fold |
| CC1(C)CC(=O)C2=C(C1)Nc1n[nH]c(C3CC(F)(F)C3)c1[C@@]21CCOc2ccccc21 [Compound 269] | 164 |  | 18 | GSK3β fold selectivity (GSK3β [4]): 9.1 fold |
| CC1(C)CC(=O)C2=C(C1)Nc1n[nH]c(C3CC(F)(F)C3)c1[C@]21CCOc2ccccc21 [Compound 270] | 1630 |  | 210 | GSK3β fold selectivity (GSK3β [4]): 7.8 fold |
| CCC1(c2ccccc2)C2=C(CC(C)(C)CC2=O)Nc2n[nH]c(CC(C)(C)C)c21 (stereo not drawn) [Compound 274] | 340 |  | 100 | GSK3β fold selectivity (GSK3β [4]; [6]): 3.4 fold |
| CN1C(=O)C2(C3=C(CC(C)(C)CC3=O)Nc3n[nH]c(CC(C)(C)C)c32)c2ccccc21 (stereo not drawn) [Compound 287] | 8300 |  | 939 | GSK3β fold selectivity (GSK3β [4]; [6]): 8.8 fold |
| COc1ccccc1[C@H]1C2=C(CC(C)(C)CC2=O)Nc2n[nH]c(C(C)C)c21 [Compound 295] | 462 |  | 57 | GSK3β fold selectivity (GSK3β [4]; [6]): 8.1 fold |
| CCc1ccccc1[C@@H]1C2=C(CC(C)(C)CC2=O)Nc2n[nH]c(C(C)C)c21 [Compound 322] | 462 |  | 42 | GSK3β fold selectivity (GSK3β [4]; [6]): 11.0 fold |
| COc1cc(F)ccc1[C@H]1C2=C(CC(C)(C)CC2=O)Nc2n[nH]c(C(C)C)c21 [Compound 323] | 271 |  | 20 | GSK3β fold selectivity (GSK3β [4]; [6]): 13.6 fold |
| COc1cc(F)ccc1[C@@H]1C2=C(CC(C)(C)CC2=O)Nc2n[nH]c(C(C)C)c21 [Compound 324] | 920 |  | 332 | GSK3β fold selectivity (GSK3β [4]; [6]): 2.8 fold |

The next lines start with results.

| IC50 (GSK3α [1]) [nM] | GSK3α fold selectivity (GSK3α [2]; [5]) [fold] | IC50 (GSK3β [3]) [nM] | Compound | further results |
| --- | --- | --- | --- | --- |
| 239 | 3.8 | 901 | CC1(C)CC(=O)C2=C(C1)Nc1n[nH]cc1C2(C)c1cccc(F)c1 (racemic) [Compound 201] |  |
| 0.4 | 10.0 | 4 | CC1(C)CC(=O)C2=C(C1)Nc1n[nH]cc1C2(C)c1cccc(C(F)(F)F)c1 (racemic) [Compound 206] |  |
| 54 | 5.8 | 312 | CCC1(c2cccc(Cl)c2)C2=C(CC(C)(C)CC2=O)Nc2n[nH]cc21 (racemic) [Compound 218] |  |
| 13 | 6.6 | 86 | CCC1(c2cccc(C(C)(C)C)c2)C2=C(CC(C)(C)CC2=O)Nc2n[nH]cc21 (racemic) [Compound 225] |  |
| 280 | 4.7 | 1310 | CCCC1(c2ccccc2)C2=C(CC(C)(C)CC2=O)Nc2n[nH]cc21 (racemic) [Compound 228] |  |
| 644 | 2.9 | 1890 | CC(C)C1(c2ccccc2)C2=C(CC(C)(C)CC2=O)Nc2n[nH]cc21 (racemic) [Compound 231] |  |
| 465 | 2.7 | 1240 | CC1(C)CC(=O)C2=C(C1)Nc1n[nH]cc1[C@]2(C)c1cccc(F)c1 (stereo in doubt) [Compound 202] |  |
| 9600 | 3.0 | 28900 | CC1(C)CC(=O)C2=C(C1)Nc1n[nH]cc1[C@@]2(C)c1cccc(F)c1 (stereo in doubt) [Compound 203] |  |
| 37 | 4.7 | 173 | CC1(C)CC(=O)C2=C(C1)Nc1n[nH]cc1[C@]2(C)c1cccc(Cl)c1 (stereo in doubt) [Compound 204] |  |
| 4720 | 7.1 | 33400 | CC1(C)CC(=O)C2=C(C1)Nc1n[nH]cc1[C@@]2(C)c1cccc(Cl)c1 (stereo in doubt) [Compound 205] |  |
| 2 | 7.0 | 14 | CC1(C)CC(=O)C2=C(C1)Nc1n[nH]cc1[C@]2(C)c1cccc(C(F)(F)F)c1 (stereo in doubt) [Compound 207] |  |
| 225 | 6.4 | 1450 | CC1(C)CC(=O)C2=C(C1)Nc1n[nH]cc1[C@@]2(C)c1cccc(C(F)(F)F)c1 (stereo in doubt) [Compound 208] |  |
| 6 | 5.0 | 30 | CC1(C)CC(=O)C2=C(C1)Nc1n[nH]cc1[C@]2(C)c1cccc(C#N)c1 (stereo in doubt) [Compound 209] |  |
| 2350 | 3.8 | 8860 | CC1(C)CC(=O)C2=C(C1)Nc1n[nH]cc1[C@@]2(C)c1cccc(C#N)c1 (stereo in doubt) [Compound 210] |  |
| 58 | 6.7 | 388 | CC[C@@]1(c2cccc(F)c2)C2=C(CC(C)(C)CC2=O)Nc2n[nH]cc21 (stereo in doubt) [Compound 214] |  |
| 4340 |  | 385 | CC(C)c1[nH]nc2c1[C@@](C)(c1ccccc1F)C1=C(CC(C)(C)CC1=O)N2 (stereo in doubt) [Compound 313] | GSK3β fold selectivity (GSK3β [4]; [6]): 11.3 fold |
|  |  | < 100 | Cc1[nH]nc2c1[C@](C)(c1ccccc1)C1=C(CC(C)(C)CC1=O)N2 [Compound 123] | GSK3α fold selectivity (GSK3α [2]; GSK3α over GSK3β): 3.6 fold |
| 241 |  | 76 | CC(C)c1[nH]nc2c1C(C)(c1ccccc1)C1=C(CC(C)(C)CC1=O)N2 (stereo not drawn) [Compound 296] | GSK3β fold selectivity (GSK3β [4]; [6]): 3.2 fold |
| 277 |  | 90 | CCC(C)c1[nH]nc2c1C(C)(c1ccccc1)C1=C(CC(C)(C)CC1=O)N2 (stereo not drawn) [Compound 299] | GSK3β fold selectivity (GSK3β [4]; [6]): 3.1 fold |
